Results from patent publication EP4361137A1, “PRUNE1 INHIBITORS AND THERAPEUTIC USE THEREOF” (CEINGE Biotecnologie Avanzate Franco Salvatore s.c. a r.l., priority 2022, dated 2024).
“Also recorded” adds a separate entry of the source.

Tests used:
MATH1-Prune1/ TP53-/- = assay: Orthotopic implantation of MATH1-Prune1/TP53-/- cells in immunocompetent syngeneic mice, tumor growth; assay type: in vivo, FVB WT mice; settings: for intracranial tumor growth (bioluminescence, photon emission) / BLI signal from the spinal cord (metastasis): 6 mg/kg/day intraperitoneally for 7 days, T17, HCl salt; for BLI signal from the spinal cord (metastasis): ex vivo
Method: MATH1-Prune1/ TP53-/- were implanted into the right cerebellar hemisphere of female (n.10) immunocompetent syngeneic mice model (5 weeks old, strain: FVB WT) to establish intracerebellar MATH1-Prune1/ TP53-/- models. Mice were anaesthetised with Ketamine/ Xylazine (87.5 mg/kg, 12.5 mg/kg, respectively). The mice were then placed in a stereotactic frame by hooking their incisors onto the frame hold. A small skin incision (length, 1 mm) and a burr hole (diameter, 0.7 mm) were created using a microsurgical drill (Fine Science Tools, Foster City, CA, USA of MATH1-Prune1/ TP53-/- (1.5 ×10^5) were resuspended in 10 µL PBS and injected slowly through the burr hole into the right cerebellar hemisphere (stereotactic coordinates from Bregma: anteroposterior, 5.5 mm; right lateral, 2.1 mm; dorsoventral 5.0 mm), with a steady force over 30 s, using a 10-AL, 26-gauge Hamilton Gastight model 1701RN syringe needle (SigmaAldrich) that was inserted perpendicular to the cranial surface. The incision was sutured using Safil polyglycolic acid synthetic absorbable suture (6/0). The mice were kept on a warming blanket after the surgery, to help them to maintain their body temperature. Their mobility and respiratory patterns were observed continuously, and once the mice had recovered from the anaesthesia; they were place in a sterile housing cage. The mice were monitored daily for development of potential neurological deficits. 10 days after the implantation of the cells, the mice were imaged, and tumour growth was evaluated by bioluminescence acquisition using an imaging system (IVIS 3D Illumina; Xenogen/ Caliper). For the acquisitions, the mice were anaesthetised by inhalational of isoflurane, and the D-luciferin (122799; PerkinElmer) (15 mg/mL stock) was injected intraperitoneally (100 µL per 10 g body weight). At 5 min from the luciferin injection, the mice were imaged for 3 min. To quantify the bioluminescence, the integrated fluxes of photons (p/s) within each area of interest were determined using the Living Images Software Package 3.2 (Xenogen-Perkin Elmer). […] After 17 days from tumour implantation (i.e., after one weeks of LEO-AA7.5(S)T treatment), the mice were sacrificed, and the organs were collected for immunohistochemistry and immunofluorescence analyses.
Paraffin sections of the tumor specimens (thickness, 3 µm) were deparaffinised and rehydrated by immersing the slides in Xylene Substitute (A5597; Sigma), as three washes for 5 min each, then serially in 100%, 95%, 70%, 50%, and 30% ethanol (two washes for 10 min, for each), and deionised water (two washes, for 5 min each). The washes were then followed by PBS, PBS containing 0.02% Triton-X 100 (215680010; Acros Organics), and PBS (two washes for 5 min, for each). For antigen retrieval, the slides were immersed in boiling 10 mM sodium citrate buffer (pH 6.0) using a microwave oven, and then maintained at sub-boiling temperature for 10 min. The slides were left to cool at room temperature for 30 min. The sections were then washed by immersion in distilled water for 5 min. To block endogenous peroxidase activity, the tissue sections were placed in a solution with 3.0% hydrogen peroxide in methanol for 15 min. Then, to decrease the nonspecific background fluorescence, the tissues were digested by treating them with a solution containing 0.2% trypsin (T2600000; Sigma-Aldrich) and 0.001% CaCl2 for 10 min at 37 °C, in a humidified chamber. The slides were then washed in PBS, PBS containing 0.02% Triton-X 100 (215680010; Acros Organics), and PBS (two washes for 5 min, for each). The tissue sections were blocked with 6% bovine serum albumin (A9418; Sigma), 5% fetal bovine serum (ECS0180L; Euroclone), and 20 mM MgCl2 in PBS containing 0.02% Triton-X 100, for 1 h at room temperature, and incubated overnight with the primary antibodies at 4 °C in a humidified chamber. […]

Prune1 = assay: Immunoblotting of Prune1 in MMTV-Prune1/Wnt1 cells; assay type: cell-based, human and murine; settings: dose of 10 mM
Method: D425.MED and MMTV-Prune1/Wnt1 cells were plated and treated with increasing concentrations of LEO-AA7.5(S)T for 24 hours. Water-treated cells were used as negative control for the experiments.
Cells for immunoblotting analysis were washed in cold PBS and lysed in cell lysis buffer [20 mM sodium phosphate (pH 7.4), 150 mM NaCl, 10% (v/v) glycerol, 1% (w/v) sodium deoxycholate, 1% (v/v) Triton X-100] supplemented with protease inhibitors (Roche). The resulting cell lysates were cleared by centrifugation at 16,200g for 10 min at room temperature, and the supernatants were re- moved and assayed for protein concentrations with the Protein Assay Dye Reagent (Bio-Rad). The cell lysates (30 µg) were resolved by SDS-polyacrylamide gel electrophoresis (SDS-PAGE) gels of different percentages, which depended on the molecular weights of the proteins of interest. The proteins were then electrophoretically transferred to polyvinylidene difluoride (PVDF) membranes (Millipore). After 1 hour in blocking solution with 5% (w/v) dry milk fat in PBS or 5% (w/v) BSA (Sigma-Aldrich) in tris-buffered saline [both of which contained 0.02% (v/v) Tween 20] […] The peak areas of the bands were measured on the densitometry plots, and the relative proportions (percentages) were calculated. […]

[1] = listed as (S)-(1-(4-((4-methoxybenzyl)amino)-1,3,5-triazin-2-yl)piperidin-3-yl)methanol HC

`COc1ccc(CNc2ncnc(N3CCC[C@H](CO)C3)n2)cc1.Cl` [LEO-AA7.5(S)T, (S)-(1-(4-((4-methoxybenzyl)amino)-1,3,5-triazin-2-yl)piperidin-3-yl)methanol HCl salt] was tested, and the “intracranial tumor growth (bioluminescence, photon emission)” value (MATH1-Prune1/ TP53-/-) was “impairment of tumour growth”, the “intracranial tumor growth (bioluminescence, photon emission)” value (MATH1-Prune1/ TP53-/-; [1]) was “significantly decreased; also recorded: anti-tumorigenic action” and the “BLI signal from the spinal cord (metastasis)” value (MATH1-Prune1/ TP53-/-) was “decrease of metastasis”. The “BLI signal from the spinal cord (metastasis)” value (MATH1-Prune1/ TP53-/-; [1]) was “decreased intensity of BLI signal”, the “immunosuppressive T cells (CD4+PD1+FOXP3+ and CD8+PD1+FOXP3+) in the tumor microenvironment” value (MATH1-Prune1/ TP53-/-; 6 mg/kg/day, immunofluorescence of cerebellar tumor sections) was “reduced” and the “degradation of human and murine Prune protein” value (Prune1) was “enhance the degradation”.
